The results in this text go back to publication PMC7060200, “Selective Binding of HSC70 and its Co-Chaperones to Structural Hotspots on CFTR” (Scientific Reports, 2020).

The subject of one assay is HSC70 and DJA2. As to the kind of experiment: Refolding of guanidine denatured luciferase by HSC70 and DJA2. It counts as biochemical. The settings on record: 4 μM each HSC70 and DJA2, 100 nM luciferase, 100 μM peptide (25-fold excess), 60 min, % of control without peptide; n = 3. On the procedure:
Refolding of guanidine denatured luciferase with HSC70 and DJA2 was as described. […] To monitor refolding, luciferase activity was measured in a luminometer (Berthold Sirius) with the luciferase assay kit (Promega). For co-IPs, 20 μL reaction aliquots were stopped by dilution at 4 °C to 500 μL with buffer containing 0.1% Triton X-100, 0.2% BSA and 0.04 mg/mL apyrase (Sigma). Reactions were incubated with FLAG-M2 magnetic beads (Sigma) for 1 h at 4 °C with agitation, then beads were isolated and washed with buffer G containing 0.1% Triton X-100, and eluted with 40 μL of 1 μg/mL FLAG peptide in the same buffer. Samples were analyzed on Western blots detected with antibodies against luciferase (Sigma, L2164) and the FLAG-M2 tag (Sigma, F1804).

The target of assay [1] is T1, HSC70 (Homo sapiens, UniProt P11142).
T1 construct: made in house
As to the kind of experiment: Competition ELISA: soluble peptide vs HSC70 binding to immobilized 1097-L. The settings on record: for competition of HSC70 binding to immobilized 1097-L (in words): 1 μM HSC70, soluble peptide up to 100 μM; for HSC70 binding site by competition screen (in words): 1 μM HSC70, 100 μM soluble peptide, Fig. 3c/5, cutoff twice SD of 733-L, n ≥ 4. On the procedure:
(§1) HSC70, DJA1 and DJA2 were purified as His-tagged proteins, as described. HSC70 was also amplified by PCR with an N-terminal FLAG tag, inserted into pPROEXHTa (Invitrogen) and purified as described. HSC70 was stored in 100 mM KOAc, 20 mM HEPES-KOH pH 7.5, 5 mM MgOAC2 (buffer G), DJA1 and DJA2 in 500 mM NaCl, 20 mM HEPES-KOH pH 7.5, 5 mM MgOAC2 (buffer H). Avi-tagged CFTR NBD1 was purified as described.
(§2) The CFTR peptide library was designed as 15-mers with 10-residue overlaps covering the cytosolic sequences as in Fig. 1a and Supplemental Table S1. Synthetic peptides (Mimotopes, PepSet purity) contained an N-terminal biotin followed by linker sequence GSGS and the 15-mer sequence. […] Peptides were reconstituted in DMSO or water.
(§3) For peptide binding, streptavidin-coated black 96-well plates (Nunc Maxisorp, ThermoFisher) were pre-rinsed with PBS containing 0.05% Tween-20 (PBST), and 5 µM biotinylated peptides in 100 µl PBS were bound overnnight at 4 °C with agitation. Plates were washed with PBST and blocked with PBST containing 0.5% bovine serum albumin (BSA) for 1 h. After removal of blocking solution, 100 µl reactions containing chaperones at indicated concentrations were bound for 45 min at room temperature with agitation. HSC70 reactions were in buffer G containing 1 mM ATP, DJA1 and DJA2 reactions were in buffer H. For competition assays, chaperones and peptides were mixed at indicated concentrations immediately before the reactions were added to the plates. For detections, the plates were washed in PBST and 5 μM His-Probe-HRP conjugate (ThermoFisher) in 100 μL PBST added for 15 min with agitation. After washing in PBST, plates were developed using Amplex Red (ThermoFisher) according to manufacturer’s instructions, in a fluorescence plate reader (Tecan M1000).
(§4) Affinities were determined separately from binding curves and from competition curves. Data from binding of chaperones to immobilized peptides (Fig. 2a,b and Supplemental Fig. S2a–c) were fit to the equation 1/(1 − i) = (C/i)/Kd^B − b, where i is the relative saturation, C is the chaperone concentration (1 μM), Kd^B is the apparent dissociation constant from the binding data. In the plot of 1/(1 − i) against (C/i), the slope is 1/Kd^B, and −b is the intercept. […] In the plot of bi + (C/Kd^B)/i over D, the slope is 1/Kd^C, and e is the intercept. The amount of chaperone bound in the absence of competitor was set as i = 1.
(§5) Established statistical methods[71]–[73] were used to analyze the data for chaperone binding to the peptide library. First, biological and statistical outliers were identified with the Tukey method in two rounds, for biological and then statistical outliers. […] Binding data were represented as multiples of the standard deviations from the normal means. Binding in the presence of competitor peptides were shown as a fraction of binding in the absence of competitor, or the fraction competed calculated as 1 – fraction bound. Values were compared using a two-tailed unpaired Student’s t-test assuming unequal variance.
(ELISA stands for enzyme-linked immunosorbent assay.)

The target in assay [2] is T2, DJA1 (Homo sapiens, UniProt P31689).
T2 construct: made in house
Description: Competition ELISA: soluble peptide vs DJA1 binding to immobilized 1097-L. The settings on record: for DJA1 binding site by competition screen (in words): 1 μM DJA1, 100 μM soluble peptide, Fig. 3c/5, cutoff twice SD of 733-L, n ≥ 4; for competition of DJA1 binding to immobilized 1097-L (in words): 1 μM DJA1, soluble peptide up to 100 μM. On the procedure:
as §1, §2, §3, §4, §5

For assay [3], the target named is T3, DJA2 (Homo sapiens, UniProt O60884).
T3 construct: made in house
As to the kind of experiment: Competition ELISA: soluble peptide vs DJA2 binding to immobilized 1097-L. The settings on record: for DJA2 binding site by competition screen (in words): 1 μM DJA2, 100 μM soluble peptide, Fig. 3c/5, cutoff twice SD of 733-L, n ≥ 4; for competition of DJA2 binding to immobilized 1097-L (in words): 1 μM DJA2, soluble peptide up to 100 μM. On the procedure: as §1, §2, §3, §4, §5

The target of assay [4] is T1, HSC70. As to the kind of experiment: ELISA binding of HSC70 to immobilized biotinylated CFTR peptides. The settings on record: for binding in peptide library screen, HSC70 (in words): 2 μM HSC70, with ATP, immobilized 15-mer, n ≥ 3. On the procedure:
as §1, §2, §3, §4, §5

For assay [5], the target named is T2, DJA1. As to the kind of experiment: ELISA binding of DJA1 to immobilized biotinylated CFTR peptides. The conditions noted are these: 2 μM DJA1, absence of ATP, immobilized 15-mer; n ≥ 3. On the procedure:
as §1, §2, §3, §4, §5

The target in assay [6] is T3, DJA2. As to the kind of experiment: ELISA binding of DJA2 to immobilized biotinylated CFTR peptides. The conditions noted are these: 2 μM DJA2, absence of ATP, immobilized 15-mer; n ≥ 3. On the procedure: as §1, §2, §3, §4, §5

Entries after “also recorded” stand apart in the source; their conditions may differ. Read-outs that look alike come from different tables or passages of the source. Ends that are not written are not given here. Peptide text beside a SMILES is read from it.

T3 sequence (O60884 whole entry): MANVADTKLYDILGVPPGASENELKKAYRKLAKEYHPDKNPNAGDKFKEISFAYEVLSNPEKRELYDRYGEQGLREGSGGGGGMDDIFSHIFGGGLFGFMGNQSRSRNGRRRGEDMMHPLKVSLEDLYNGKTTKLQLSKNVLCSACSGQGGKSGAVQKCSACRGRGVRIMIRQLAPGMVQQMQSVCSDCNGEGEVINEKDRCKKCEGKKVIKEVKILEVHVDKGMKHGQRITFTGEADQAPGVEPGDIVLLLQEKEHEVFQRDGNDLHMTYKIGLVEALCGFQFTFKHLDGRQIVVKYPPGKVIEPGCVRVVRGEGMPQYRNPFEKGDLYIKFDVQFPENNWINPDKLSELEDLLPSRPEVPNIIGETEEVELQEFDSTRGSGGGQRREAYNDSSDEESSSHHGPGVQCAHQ
T1 sequence (P11142 whole entry): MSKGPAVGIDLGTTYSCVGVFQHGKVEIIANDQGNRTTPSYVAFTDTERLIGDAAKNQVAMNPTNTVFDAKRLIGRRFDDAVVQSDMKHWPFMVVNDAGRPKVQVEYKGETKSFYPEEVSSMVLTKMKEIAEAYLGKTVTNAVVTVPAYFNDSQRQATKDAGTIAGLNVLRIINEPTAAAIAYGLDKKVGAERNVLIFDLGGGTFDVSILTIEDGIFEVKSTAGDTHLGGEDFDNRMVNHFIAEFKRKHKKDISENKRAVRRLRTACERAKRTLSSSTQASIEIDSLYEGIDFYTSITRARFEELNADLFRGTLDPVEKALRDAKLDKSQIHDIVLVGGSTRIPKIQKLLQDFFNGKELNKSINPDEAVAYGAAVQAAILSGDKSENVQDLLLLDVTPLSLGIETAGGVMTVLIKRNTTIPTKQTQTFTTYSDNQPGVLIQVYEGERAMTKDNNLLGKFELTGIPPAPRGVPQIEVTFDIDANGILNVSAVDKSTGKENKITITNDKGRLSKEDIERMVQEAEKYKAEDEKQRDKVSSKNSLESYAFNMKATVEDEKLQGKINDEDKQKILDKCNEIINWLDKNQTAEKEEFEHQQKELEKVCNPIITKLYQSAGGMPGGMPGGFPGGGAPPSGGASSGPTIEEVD

For the molecule SKLFFSWTR [Peptide 17-S], the “effect on luciferase refolding (in words)” value with HSC70 and DJA2 is recorded as “partial but still significant”. For the same molecule, at HSC70 [1], the “competition of HSC70 binding to immobilized 1097-L (in words)” value (shortened to “competition of HSC70 binding”) is on record as “competed HSC70 well”.
For the molecule DLYLLDSPF [Peptide 571-S, NBD1 9-mer], the “DJA1 binding site by competition screen (in words)” value (from here on “DJA1 binding site”) on DJA1 [2] was “bound only by DJA2”. Further, the “DJA2 binding site by competition screen (in words)” value (“DJA2 binding site” below) on DJA2 [3] is “bound only by DJA2”. Also, the “HSC70 binding site by competition screen (in words)” value (shortened to “HSC70 binding site”) at HSC70 [1] is recorded as “bound only by DJA2”.
On to FGVIPQKVFIFSGTF [Peptide 1293-L], for which the “competition of DJA1 binding to immobilized 1097-L (in words)” value (“competition of DJA1 binding” below) on DJA1 [2] is “only competed HSC70”. In addition, the “competition of DJA2 binding to immobilized 1097-L (in words)” value (“competition of DJA2 binding” for short) at DJA2 [3] is listed as “only competed HSC70”. Besides, at HSC70 [4] (titration on immobilized peptide, Fig. 2a, n ≥ 6), the “HSC70 concentration at which binding reached saturation” value is “around 1 μM”. The “competition of HSC70 binding” value at HSC70 [1] is listed as “Strong, essentially saturating competition; also recorded: only competed HSC70”.
With “488-L: NBD1 15-mer 481-495 (KIKHSGRISFCSQFS; UniProt P13569 481-495, looked up, fragment) [Peptide 488-L]”, the “binding in peptide library screen, DJA1 (in words)” value with DJA1 [5] was “binding by DJA1, HSC70 and DJA2, in the original screen”. Further, the “competition of DJA1 binding” value with DJA1 [2] is “competed poorly”. Moreover, the “binding in peptide library screen, DJA2 (in words)” value with DJA2 [6] was “binding by DJA1, HSC70 and DJA2, in the original screen”. In addition, the “competition of DJA2 binding” value in the assay with DJA2 [3] was “competed poorly”. Moreover, the “binding in peptide library screen, HSC70 (in words)” value with HSC70 [4] is “binding by DJA1, HSC70 and DJA2, in the original screen”. The “competition of HSC70 binding” value in the assay with HSC70 [1] is on record as “competed poorly”.
Take HRIEAMLEC [Peptide 1406-S, NBD2 9-mer]: the “HSC70 binding site” value on HSC70 [1] is reported as “HSC70 site”.
What is called Kd is the equilibrium constant for the complex coming apart. Consider `CC[C@H](C)[C@H](NC(=O)[C@H](CCCNC(=N)N)NC(=O)[C@H](Cc1c[nH]cn1)NC(=O)[C@H](CCC(=O)O)NC(=O)[C@H](CS)NC(=O)[C@H](CC(C)C)NC(=O)[C@@H](NC(=O)[C@@H](NC(=O)[C@@H](N)[C@@H](C)O)C(C)C)[C@@H](C)CC)C(=O)N[C@@H](CCC(=O)O)C(=O)N[C@@H](C)C(=O)N[C@@H](CCSC)C(=O)N[C@@H](CC(C)C)C(=O)N[C@@H](CCC(=O)O)C(=O)N[C@@H](CS)C(=O)O` [Peptide 1403-L] (H-TVILCEHRIEAMLEC-OH), for which, at DJA1 [2], the “competition of DJA1 binding” value is reported as “competed all of the chaperones well”. On DJA2 [3], the affinity, expressed as Kd, was 995 nM and the “competition of DJA2 binding” value is “competed all of the chaperones well”. Further, on HSC70 [1], the “competition of HSC70 binding” value was “competed all of the chaperones well”.
With `CC[C@H](C)[C@H](NC(=O)[C@@H](NC(=O)[C@@H](NC(=O)[C@H](CS)NC(=O)[C@H](CC(=O)O)NC(=O)[C@H](C)NC(=O)[C@H](Cc1ccccc1)NC(=O)[C@H](C)NC(=O)[C@H](CCC(N)=O)NC(=O)[C@H](CCCCN)NC(=O)[C@H](CC(C)C)NC(=O)[C@@H](NC(=O)[C@@H](N)CCCNC(=N)N)[C@@H](C)O)[C@@H](C)O)C(C)C)C(=O)N[C@@H](CC(C)C)C(=O)N[C@@H](CS)C(=O)O` [Peptide 1393-L] (H-RTLKQAFADCTVILC-OH), the “competition of DJA1 binding” value on DJA1 [2] was “competed all of the chaperones well”. The “competition of DJA2 binding” value at DJA2 [3] is reported as “competed all of the chaperones well”. For the same molecule, at DJA2 [3] (read-out: Kd from competition curves, DJA2), the Kd is 1490 nM. Besides, the “competition of HSC70 binding” value at HSC70 [1] was “competed all of the chaperones well”.
As for EIFESCVCK [Peptide 589-S, NBD1 9-mer], the “DJA2 binding site” value at DJA2 [3] is recorded as “DJA2 site”.
For the molecule QAFADCTVI [Peptide 1394-S, NBD2 9-mer], the “DJA1 binding site” value on DJA1 [2] was “bound by HSC70, DJA2 and DJA1”. Further, on DJA2 [3], the “DJA2 binding site” value was “bound by HSC70, DJA2 and DJA1”. Further, the “HSC70 binding site” value at HSC70 [1] was “bound by HSC70, DJA2 and DJA1”.
On to LRWFQMRIE [Peptide 1100-S], for which the “competition of DJA2 binding” value on DJA2 [3] is “competed”.
In the case of “493-L: NBD1 15-mer 486-500 (GRISFCSQFSWIMPG; UniProt P13569 486-500, looked up, fragment) [Peptide 493-L]”, the “binding in peptide library screen, DJA1 (in words)” value in the assay with DJA1 [5] is “binding by DJA1, HSC70 and DJA2, in the original screen”. Besides, the “competition of DJA1 binding” value with DJA1 [2] is “competed poorly”. Moreover, in the assay with DJA2 [6], the “binding in peptide library screen, DJA2 (in words)” value was “binding by DJA1, HSC70 and DJA2, in the original screen”. Further, in the assay with DJA2 [3], the “competition of DJA2 binding” value is reported as “competed poorly”. Further, in the assay with HSC70 [4], the “binding in peptide library screen, HSC70 (in words)” value is “binding by DJA1, HSC70 and DJA2, in the original screen”. In addition, in the assay with HSC70 [1], the “competition of HSC70 binding” value was “competed poorly”.
Take SCVCKLMAN [Peptide 593-S, NBD1 9-mer]: the “DJA1 binding site” value at DJA1 [2] is reported as “DJA1 site”.
Regarding ILCEHRIEA [Peptide 1402-S, NBD2 9-mer], at HSC70 [1], the “HSC70 binding site” value is given as “HSC70 site”.
